The target in assay [1] is BACE (Homo sapiens, UniProt P56817). The experiment in a line: In vitro enzymatic BACE FRET assay. The assay is classed as biochemical. Conditions: average IC50, enzyme assay; read-out: BACE 1 FRET assay. On the procedure:
In Vitro Enzymatic BACE FRET (Fluorescence Resonance Energy Transfer) Assay (Enzyme Assay Data in the Example Table I) The assay buffer used in this screen is 0.05 M acetate, pH 4.2, 10% DMSO final, 100 uM genapol (which is a nonionic detergent, below its Critical Micelle Concentration). The beta secretase enzyme (0.2 nM) is pre-incubated for one hour with inhibitors, typically in about 1 uL of DMSO according to a serial dilution, are added thereto. This assay is effectively started by the addition of FRET substrate (50 nM) and the combination is incubated for one hour. The FRET assay is terminated with by addition of Tris buffer, which raises the pH to neutrality, and the fluorescence is determined. The FRET substrate is a peptide with commercially available fluorophore and quencher, on opposite sides of the BACE cleavage site. Proteolytic cleavage of the FRET substrate releases quenching of fluorescence (excitation 488 nm and emission […]).

For assay [2], the system named is Aβ40. As to the kind of experiment: In vitro BACE cell-based assay (Aβ40 sandwich ELISA, cells stably expressing APP). The settings on record: Homo sapiens, HEK293, average IC50, cell assay, HEK cells. The procedure:
In Vitro BACE Cell-Based Assay […] Cells stably expressing Amyloid Precursor Protein (APP) were plated at a density of 40K cells/well in 96 well plates (Costar). The cells were cultivated for 24 hours at 37° C. and 5% CO2 in DMEM supplemented with 10% FBS. The test compounds were then added to cells in 10-point dose response concentrations with the starting concentration being either 100 μM or 10 μM. The compounds were diluted from stock solutions in DMSO and the final DMSO concentration of the test compounds on cells was 0.1%. […] The IC50 of the compound was calculated from the percent of control or percent inhibition of Aβ40 as a function of the concentration of the test compound. The sandwich ELISA to detect Aβ40 was performed in 96 well microtiter plates, which were pre-treated with goat anti-rabbit IgG (Pierce). […] The optimal concentration for the pAb40 antibody was 3 μg/ml in Superblock/TBS (Pierce) that was supplemented with 0.05% Tween 20 (Sigma). […] Cellular supernatants were incubated with the capture antibody for 3 h at 4° C., followed by 3 wash steps in TBS-tween (0.05%). The detecting antibody incubation was for 2 h at 4° C., again followed by the wash steps as described previously. The final readout of the ELISA is Time-Resolved Fluorescence (counts per minute) using Delfia reagents Streptavidin-Europium and Enhancement solutions (Perkin Elmer) and the Victor 2 multilabel counter (Perkin Elmer).
(In general: ELISA stands for enzyme-linked immunosorbent assay.)

In patent publication US9012446B2, “Amino-oxazines and amino-dihydrothiazine compounds as beta-secretase modulators and methods of use” (Amgen Inc., priority 2010, dated 2015) one finds IC50 data, which are given here for 21 compounds.

BACE, sequence (P56817 46-501, species assumed): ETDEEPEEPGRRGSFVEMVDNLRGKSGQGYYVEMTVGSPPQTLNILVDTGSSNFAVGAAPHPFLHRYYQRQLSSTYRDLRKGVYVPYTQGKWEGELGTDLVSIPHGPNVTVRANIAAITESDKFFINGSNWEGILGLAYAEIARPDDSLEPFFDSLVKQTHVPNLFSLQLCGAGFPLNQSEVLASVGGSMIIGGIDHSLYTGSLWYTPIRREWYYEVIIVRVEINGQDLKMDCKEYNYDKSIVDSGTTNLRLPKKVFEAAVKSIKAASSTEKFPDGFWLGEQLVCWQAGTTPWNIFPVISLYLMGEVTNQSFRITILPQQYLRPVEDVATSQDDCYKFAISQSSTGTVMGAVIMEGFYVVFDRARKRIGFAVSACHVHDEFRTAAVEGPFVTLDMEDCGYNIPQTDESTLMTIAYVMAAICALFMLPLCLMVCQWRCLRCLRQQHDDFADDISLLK

As to `NC1=N[C@@]2(CCO1)c1cc(-c3cccnc3F)ccc1Oc1c2cc(-c2cccnc2F)nc1F` [compound 105], the IC50 amounted to 20.6 nM in assay [1] and 24.2 nM in assay [2].

Take `NC1=N[C@]2(CCO1)c1cc(-c3cccnc3F)ccc1Oc1c2cc(-c2ccnc(F)c2)nc1F` [compound 106]: the IC50 in assay [1] was 1740 nM; in assay [2] it was 2640 nM.

Turning to `NC1=N[C@@]2(CCO1)c1cc(-c3cccnc3F)ccc1Oc1c2cc(C2=CCOCC2)nc1F` [compound 108], the IC50 in assay [1] and in assay [2] was 0.6 nM in each case.

With `NC1=N[C@]2(CCO1)c1cc(-c3cccnc3F)ccc1Oc1cnc(C3=CCOCC3)cc12` [compound 109], the values for the IC50 in assay [1] and in assay [2] were 2820 nM and 579 nM, respectively.

As for `NC1=N[C@@]2(COC1)c1cc(-c3cncc(F)c3)ccc1Oc1cnc(-c3cncc(F)c3)cc12` [compound 112], the IC50 is 0.5 nM in assay [1] and 1.5 nM in assay [2].

As for `NC1=N[C@@]2(COC1)c1cc(-c3cncc(F)c3)ccc1Oc1cnc(-c3ccnc(F)c3)cc12` [compound 113], the IC50 in assay [1] turned out to be 0.5 nM; in assay [2] it was 1 nM.

As to `NC1=N[C@@]2(COC1)c1cc(-c3cccnc3)ccc1Oc1cnc(-c3ccnc(F)c3)cc12` [compound 116], the IC50 in assay [1] stood at 0.6 nM; in assay [2], 0.8 nM.

Take `NC1=N[C@@]2(COC1)c1cc(-c3cnccc3F)ccc1Oc1cnc(-c3ccc(F)c(F)c3)cc12` [compound 117]: the IC50 is 0.3 nM in assay [1] and 1.6 nM in assay [2].

For `NC1=N[C@@]2(COC1)c1cc(-c3cnccc3F)ccc1Oc1cnc(-c3ccnc(F)c3)cc12` [compound 118], the IC50 was 0.4 nM in assay [1] and 0.6 nM in assay [2].

Take `NC1=N[C@@]2(COC1)c1cc(-c3cncc(F)c3)ccc1Oc1cnc(C3=CCCOC3)cc12` [compound 121]: the IC50 came out at 0.5 nM in assay [1] and 0.2 nM in assay [2].

`COc1cc2c(cn1)Oc1ccc(-c3cccnc3F)cc1[C@@]21COCC(N)=N1` [compound 123]: the IC50 amounted to 2.2 nM in assay [1] and 3.3 nM in assay [2].

Turning to `COc1cc2c(cn1)Oc1ccc(-c3cccnc3)cc1[C@@]21COCC(N)=N1` [compound 124], the results for the IC50 in assay [1] and in assay [2] were 6.8 nM and 5.1 nM, respectively.

Take `COc1cc2c(cn1)Oc1ccc(-c3cc(F)ccc3Cl)cc1[C@@]21COCC(N)=N1` [compound 125]: the IC50 in assay [1] stood at 2.2 nM; in assay [2], 12.4 nM.

Regarding `CC(C)(C#N)COc1cc2c(cn1)Oc1ccc(-c3cc(Cl)ccc3F)cc1[C@@]21COCC(N)=N1` [compound 127], the values for the IC50 in assay [1] and in assay [2] were 0.3 nM and 1.4 nM, respectively.

As to `NC1=N[C@@]2(COC1)c1cc(Br)ccc1Oc1c2cc(N2CCC(F)(F)CC2)nc1F` [compound 128], the IC50 in assay [1] is 17.3 nM; in assay [2], 109 nM.

For `NC1=N[C@]2(COC1)c1cc(C3=CCCOC3)ccc1Oc1ccc(-c3cccnc3F)cc12` [compound 130], the IC50 stood at 0.7 nM in assay [1] and 12.2 nM in assay [2].

`CC#Cc1cncc(-c2ccc3c(c2)[C@@]2(COCC(N)=N2)c2cc(C4=CCOCC4)cc(F)c2O3)c1` [compound 131]: the IC50 was found to be 0.7 nM in assay [1] and 2.5 nM in assay [2].

`NC1=N[C@@]2(COC1)c1cc(-c3cncnc3)ccc1Oc1c(F)cc(C3=CCCOC3)cc12` [compound 133]: the figures for the IC50 in assay [1] and in assay [2] were 0.3 nM and 0.4 nM, respectively.

In the case of `CC(C)(C)COc1ccc2c(c1)[C@]1(COCC(N)=N1)c1cc(Br)ccc1O2` [compound 135, (3R)-2′-bromo-7′-(2,2-dimethylpropoxy)-6H-spiro[1,4-oxazine-3,9′-xanthen]-5-amine], the IC50 in assay [1] turned out to be 102 nM; in assay [2], 587 nM.

On to `COc1ccc2c(c1)C1(CCSC(N)=N1)c1cc(-c3cncnc3)ccc1O2` (stereo not drawn) [compound 137], for which the IC50 in assay [1] is 1130 nM; in assay [2], 1140 nM.

For `CC(C)(C)C#Cc1cc2c(cn1)Oc1ccc(-c3cncc(F)c3)cc1[C@@]21CCOC(N)=N1` [compound 139], the IC50 stood at 12.8 nM in assay [1] and 6.9 nM in assay [2].
